Measured values reported in patent US9951063B2, “8-(piperazin-1-yl)-1,2,3,4-tetrahydro-isoquinoline derivatives” (IDORSIA PHARMACEUTICALS LTD, priority 2014, dated 2018).

Molecular target: human CXCR3A (Homo sapiens (Human), UniProt P49682)
Experiment: FLIPR assay (inhibition of CXCL10-induced calcium signal)
Type: cell-based
Details: engineered CHO-K1 cells expressing human CXCR3A coupled to Galpha(16); Fluo-4-AM; CXCL10 agonist 20 nM; mean values where determined several times
How it was run: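 CHO-K1 cells expressing human CXCR3A coupled to Gα16 were loaded with Fluo-4-AM for 1 h in HBSS/20 mM Hepes pH 7.4 with probenecid. Compound was added, then CXCL10 (20 nM as dispensed). Baseline-subtracted peak fluorescence gave inhibition curves and IC50, averaged over repeats.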

Sequence of human CXCR3A (P49682 whole entry): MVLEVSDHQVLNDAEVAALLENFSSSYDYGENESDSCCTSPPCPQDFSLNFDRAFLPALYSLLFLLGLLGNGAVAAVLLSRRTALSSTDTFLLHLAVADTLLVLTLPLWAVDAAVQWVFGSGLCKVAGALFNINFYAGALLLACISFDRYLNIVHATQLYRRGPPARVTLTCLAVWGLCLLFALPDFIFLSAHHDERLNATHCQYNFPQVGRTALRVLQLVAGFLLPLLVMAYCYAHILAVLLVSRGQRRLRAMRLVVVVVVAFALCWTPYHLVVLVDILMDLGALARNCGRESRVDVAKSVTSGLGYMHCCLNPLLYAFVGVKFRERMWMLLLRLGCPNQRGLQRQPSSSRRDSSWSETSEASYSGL

IC50: 8.58 nM
SMILES: Cc1nc(C)n(CC(=O)N2CCN(c3cc(F)c(F)c4c3CN(c3cnc(C(F)(F)F)nc3)CC4)C[C@H]2C)n1 [Example 147, 1-{(R)-4-[5,6-Difluoro-2-(2-trifluoromethyl-pyrimidin-5-yl)-1,2,3,4-tetrahydro-isoquinolin-8-yl]-2-methyl-piperazin-1-yl}-2-(3,5-dimethyl-[1,2,4]triazol-1-yl)-ethanone]
